Source: ChEMBL document CHEMBL3508693 (2016)

Key:
[1] = biological target: T1, CYP1A2 (Homo sapiens, UniProt P05177); test: Inhibitory activity of 20 uM SPP100 on 545 Pmoles of cDNA-derived CYP1A2 enzyme in microsome prepared from human lymphoblastoid cell line; assay type: ADME, microsomes; design: conc 20 uM, interact cpd conc 50 uM; conditions: probe phenacetin
T1 sequence (P05177 whole entry): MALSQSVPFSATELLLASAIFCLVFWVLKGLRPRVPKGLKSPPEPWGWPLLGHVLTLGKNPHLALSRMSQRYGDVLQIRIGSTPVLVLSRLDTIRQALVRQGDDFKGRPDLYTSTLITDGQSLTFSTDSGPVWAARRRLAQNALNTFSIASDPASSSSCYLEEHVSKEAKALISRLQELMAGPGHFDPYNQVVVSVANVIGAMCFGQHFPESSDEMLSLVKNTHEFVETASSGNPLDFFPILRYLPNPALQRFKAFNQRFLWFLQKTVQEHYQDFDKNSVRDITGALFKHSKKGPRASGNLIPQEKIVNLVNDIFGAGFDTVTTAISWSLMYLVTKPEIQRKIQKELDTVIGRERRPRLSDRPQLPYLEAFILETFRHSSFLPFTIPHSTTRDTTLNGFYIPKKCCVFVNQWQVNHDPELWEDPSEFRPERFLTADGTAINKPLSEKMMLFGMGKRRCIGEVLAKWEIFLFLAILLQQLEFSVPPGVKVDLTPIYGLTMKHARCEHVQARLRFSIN

[2] = biological target: CYP3A4 (Homo sapiens, UniProt P08684); test: Inhibitory activity of 200 µM SPP100 on cDNA-derived CYP3A4 enzyme in microsome prepared from human lymphoblastoid cell line; assay type: ADME, microsomes; design: conc 200 uM, interact cpd conc 120 uM; conditions: probe testosterone (120 uM)
[3] = Terminal elimination half-life of SPP100 following single oral dose of SPP100 300 mg capsule studied in healthy human; assay type: ADME, organism-based; conditions: plasma
[4] = biological target: T1, CYP1A2; test: Inhibition of CYP1A2 in human liver microsomes from 10 healthy donors at 200 uM aliskiren (SPP100); assay type: ADME, Microsome; design: conc 200 uM; conditions: probe phenacetin (O-deethylation)
[5] = biological target: T2, CYP2C9 (Homo sapiens, UniProt P11712); test: Inhibitory activity of 200 uM SPP100 on 220 Pmoles of cDNA-derived CYP2C9 enzyme in microsome prepared from human lymphoblastoid cell line; assay type: ADME, microsomes; design: conc 200 uM, interact cpd conc 6 uM; conditions: probe diclofenac
[6] = biological target: T2, CYP2C9; test: Inhibitory activity of 20 uM SPP100 on 259 Pmoles of cDNA-derived CYP2C9 enzyme in microsome prepared from human lymphoblastoid cell line; assay type: ADME, microsomes; design: conc 20 uM, interact cpd conc 6 uM; conditions: probe diclofenac
[7] = Excretion of radioactivity (0-72h) in faeces following single intravenous dose of 10 mg.Kg-1 [14C] aliskiren hemifumarate in mouse; assay type: ADME, organism-based, TgRasH2, Feces; conditions: in vivo
[8] = Concentration of radioactivity in the kidney medulla following repeated oral administration of [14C] aliskiren hemifumarate at 100 mg.Kg-1 level studied at 24h after 3rd dose in rat; assay type: ADME, organism-based, Albino HAN:WIST, Renal medulla; conditions: in vivo
[9] = Excretion of radioactivity (72-96h) in urine following single intravenous dose of 10 mg.Kg-1 [14C] aliskiren hemifumarate in rat; assay type: ADME, organism-based, Albino HAN:WIST; conditions: in vivo
[10] = Concentration of radioactivity in the brown fat following repeated oral administration of [14C] aliskiren hemifumarate at 100 mg.Kg-1 level studied at 24h after 7th dose in rat; assay type: ADME, organism-based, Albino HAN:WIST, Brown adipose tissue; conditions: in vivo
[11] = Tmax of [14C] aliskiren hemifumarate following single intravenous dose of [14C] aliskiren hemifumarate at 10 mg.Kg-1 level in mouse; assay type: ADME, organism-based, TgRasH2, Plasma; conditions: in vivo
[12] = Concentration of radioactivity in the liver following repeated oral administration of [14C] aliskiren hemifumarate at 100 mg.Kg-1 level studied at 24h after 10th dose in rat; assay type: ADME, organism-based, Albino HAN:WIST; conditions: in vivo
[13] = % of radioactivity (48h) recovered in cage wash of receiver rat following duodenal infusion of radioactivity through bile from donor rat treated with single intravenous administration of 10 mg.Kg-1 [14C] aliskiren hemifumarate; assay type: ADME, organism-based, HAN:WIST(SPF); conditions: in vivo
[14] = biological target: Cytochrome P450 3A4 (Homo sapiens, UniProt P08684); test: Activity of human recombinant CYP3A4 assessed as enzyme contribution (% total relative CL) towards [14C]SPP100 hemifumarate metabolism in human liver microsome; assay type: ADME; conditions: microsomes
[15] = Mean excretion of radioactivity (48-72h) in urine and faeces following single oral dose of 100 mg.Kg-1 [14C] aliskiren hemifumarate in rat; assay type: ADME, organism-based, Albino HAN:WIST, Urine/Feces; conditions: in vivo
[16] = Excretion of radioactivity (0-24h) in faeces following single oral dose of 500 mg.Kg-1 [14C] aliskiren hemifumarate in mouse; assay type: ADME, organism-based, TgRasH2, Feces; conditions: in vivo
[17] = Cmax of aliskiren hemifumarate following 8 day once-daily dosing of SPP100B oral solution at 640 mg level studied on day 8 in men; assay type: ADME, organism-based; conditions: male, human, plasma
[18] = Cmaxspec of aliskiren hemifumarate following 2 week oral dosing of aliskiren hemifumarate at 50 mg.Kg-1 level studied on day 14 in male Callithrix jacchus; assay type: ADME, organism-based, Plasma; conditions: marmoset, in vivo, 336 h
[19] = Effect of 2 week oral dosing of aliskiren hemifumarate at 10 mg.Kg-1 level on hematological parameter values in female Callithrix jacchus; assay type: toxicity, organism-based, Plasma; conditions: marmoset, in vivo, 336 h
[20] = Cmax normalised (0-168h) of unlabeled aliskiren hemifumarate following single intravenous administration of aliskiren hemifumarate at 1 mg.Kg-1 level in marmoset; assay type: ADME, organism-based, Callithrix jacchus, Plasma; conditions: in vivo
[21] = Cmax/dose of aliskiren hemifumarate following 4 week oral dietary dosing of aliskiren hemifumarate at 500 mg.Kg-1 level in male mouse; assay type: ADME, organism-based, CB6F1-TGrasH2; conditions: in vivo, 672 h
[22] = AUC (0-24h) of aliskiren hemifumarate following 4 week oral dietary dosing of aliskiren hemifumarate at 1000 mg.Kg-1 level in male mouse; assay type: ADME, organism-based; conditions: CB6F1-TGrasH2, mouse, plasma
[23] = Effect of 4 week oral dietary dosing of aliskiren hemifumarate at 1000 mg.Kg-1 level on spermatogenesis in male mouse; assay type: toxicity, organism-based, CB6F1-TGrasH2, Testis; conditions: in vivo, 672 h
[24] = Tmax of unlabeled aliskiren hemifumarate following single intravenous dose of aliskiren hemifumarate at 10 mg.Kg-1 level in mouse; assay type: ADME, organism-based; conditions: TgRasH2, mouse, plasma
[25] = AUC(0-24h) of aliskiren hemifumarate following 2 week oral dosing of aliskiren hemifumarate at 50 mg.Kg-1 level studied on day 1 in female Callithrix jacchus; assay type: ADME, organism-based; conditions: marmoset, plasma
[26] = AUC of aliskiren hemifumarate following single dosing of SPP100B oral solution at 80 mg level studied on day 1 in men; assay type: ADME, organism-based; conditions: male, human, plasma
[27] = AUC (0-24h) of aliskiren hemifumarate following 4 week oral dietary dosing of aliskiren hemifumarate at 2000 mg.Kg-1 level in male mouse; assay type: ADME, organism-based; conditions: CB6F1-TGrasH2, mouse, plasma
[28] = AUC (0-96h) of unlabeled aliskiren hemifumarate following intravenous administration of aliskiren hemifumarate at 10 mg.Kg-1 level in rat; assay type: ADME, organism-based; conditions: Albino HAN:WIST, plasma

T2 sequence (P11712 whole entry): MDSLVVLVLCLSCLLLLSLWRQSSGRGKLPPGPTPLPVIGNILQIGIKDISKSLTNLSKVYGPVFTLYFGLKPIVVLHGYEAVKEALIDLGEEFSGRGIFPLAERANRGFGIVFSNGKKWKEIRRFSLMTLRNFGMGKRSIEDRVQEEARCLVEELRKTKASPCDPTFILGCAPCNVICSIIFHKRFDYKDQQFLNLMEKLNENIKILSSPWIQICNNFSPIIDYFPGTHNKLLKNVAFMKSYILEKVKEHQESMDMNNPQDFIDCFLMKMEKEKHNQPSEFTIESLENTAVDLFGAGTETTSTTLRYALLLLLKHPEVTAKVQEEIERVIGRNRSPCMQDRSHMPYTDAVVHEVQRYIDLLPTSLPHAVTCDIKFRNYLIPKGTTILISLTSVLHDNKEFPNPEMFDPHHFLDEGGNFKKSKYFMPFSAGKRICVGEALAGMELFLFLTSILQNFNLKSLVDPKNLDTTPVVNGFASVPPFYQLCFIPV
Sequence of Cytochrome P450 3A4 (P08684 whole entry): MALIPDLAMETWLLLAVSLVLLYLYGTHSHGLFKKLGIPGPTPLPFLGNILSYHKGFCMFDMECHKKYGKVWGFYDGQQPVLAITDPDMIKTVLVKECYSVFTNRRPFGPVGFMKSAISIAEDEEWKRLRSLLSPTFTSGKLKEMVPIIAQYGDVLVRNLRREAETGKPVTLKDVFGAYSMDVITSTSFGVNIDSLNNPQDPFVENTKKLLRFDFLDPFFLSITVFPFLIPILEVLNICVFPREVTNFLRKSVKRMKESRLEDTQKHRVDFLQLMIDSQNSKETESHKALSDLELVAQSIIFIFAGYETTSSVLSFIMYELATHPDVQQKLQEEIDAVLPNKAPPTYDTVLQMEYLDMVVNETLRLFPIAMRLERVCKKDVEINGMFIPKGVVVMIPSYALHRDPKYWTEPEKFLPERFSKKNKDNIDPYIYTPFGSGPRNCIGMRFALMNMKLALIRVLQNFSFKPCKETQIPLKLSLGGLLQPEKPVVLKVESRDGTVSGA
Sequence of CYP3A4 (P08684 whole entry): as above

For COCCCOc1cc(C[C@@H](C[C@H](N)[C@@H](O)C[C@H](C(=O)NCC(C)(C)C(N)=O)C(C)C)C(C)C)ccc1OC, the inhibition at 20 µM [1] was -5.8%, the inhibition at 200 µM [2] was 11% and the half-life [3] was 37 h. For the same compound, the inhibition at 200 µM [4] was 15.2%, the inhibition at 200 µM [5] was 15.8% and the inhibition at 20 µM [6] was 0.9%.

For COCCCOc1cc(C[C@@H](C[C@H](N)[C@@H](O)C[C@H](C(=O)NCC([14CH3])([14CH3])C(N)=O)C(C)C)C(C)C)ccc1OC.O=C(O)/C=C/C(=O)O, the Radiolabel recovery [7] was 91.1%, the Radiolabel recovery [8] was “OUTCOME = Detected” and the Radiolabel recovery [9] was 2.5%. For the same compound, the Radiolabel recovery [10] was “OUTCOME = Detected”, the Tmax [11] was 4.98 min and the Radiolabel recovery [12] was “OUTCOME = Detected”. The Radiolabel recovery [13] was 4%, the Activity [14] was 99.6% and the Radiolabel recovery [15] was 16.3%. The Radiolabel recovery [16] was “OUTCOME = Observed/Most of the radioactivity administered was excreted during first 24h after administration and the main route of excretion was the faecal pathway”.

With COCCCOc1cc(C[C@@H](C[C@H](N)[C@@H](O)C[C@H](C(=O)NCC(C)(C)C(N)=O)C(C)C)C(C)C)ccc1OC.COCCCOc1cc(C[C@@H](C[C@H](N)[C@@H](O)C[C@H](C(=O)NCC(C)(C)C(N)=O)C(C)C)C(C)C)ccc1OC.O=C(O)/C=C/C(=O)O [ALISKIREN FUMARATE] the Cmax [17] was 335 ng/mL, the Cmax normalised [18] was 0.246 (ug/ml)/(mg/kg) and the Change in hematology [19] was “OUTCOME = Hematological parameter values did not differ from control values. No animals died during the study”. For the same compound, the Cmax normalised [20] was 14.24 (umol/L)/(mg/kg), the Cmax normalised [21] was 0.624 (ng/mL)/(mg/kg/day) and the AUC(0-t) at 24 h [22] was 4820 ng·h/mL. The Change in spermatogenesis [23] was “OUTCOME = No abnormalities. No animals died during the study”, the Tmax [24] was 4.98 min and the AUC(0-t) at 24 h [25] was 56200 ng·h/mL. The AUC [26] was 96.4 ng·h/mL, the AUC(0-t) at 24 h [27] was 7720 ng·h/mL and the AUC(0-t) at 96 h [28] was 12.6 µM·h.
